Values quoted from earlier work, collected in article PMC4203335 (International Journal of Oncology, 2014).

Assays:
[1] = system: Burkitt lymphoma xenografts
[2] = mice
[3] = system: N-Myc-induced neuroblastoma

**Q.** With `O=c1[nH]c(=S)[nH]c(-c2ccccc2)c1Cc1c(O)ccc2ccccc12` [Cambinol] as the compound, how does the growth of xenografts [1] read?
**A.** significantly inhibited

**Q.** What about the tolerability [2] of the same compound?
**A.** well tolerated

**Q.** What does the source list for `CN(C)CCCCC(=O)Nc1ccc(NC(=S)NC(=O)c2ccc(C(C)(C)C)cc2)cc1` [Tenovin-6]?
**A.** tumorigenesis (melanoma): suppressed tumorigenesis; tumorigenesis [3]: suppressed tumorigenesis

**Q.** With `CC(C)=CCC[C@]1(C)[C@@H](CC=C(C)C)C[C@@]2(CC=C(C)C)C(=O)[C@]1(C(=O)C(C)C)C(=O)C(CC=C(C)C)=C2OCC(=O)O` [aristoforin] as the compound, how does the SIRT1 inhibitory activity (SIRT1) read?
**A.** have SIRT1 inhibitory activity

**Q.** With guttiferone G as the compound, how does the SIRT1 inhibitory activity (SIRT1) read?
**A.** have SIRT1 inhibitory activity

**Q.** With inauhzin as the compound, how does the xenograft growth (colon xenograft) read?
**A.** reduced colon xenograft growth
